Experiments:
[1] = biological target: T1, ATG4B (Homo sapiens, UniProt Q9Y4P1); experiment: FRET-based assay for ATG4B activity; assay type: biochemical
T1 construct: 6xHis; made in house; host or cells: E. coli BL21(DE3)
T1 sequence (Q9Y4P1 1-393): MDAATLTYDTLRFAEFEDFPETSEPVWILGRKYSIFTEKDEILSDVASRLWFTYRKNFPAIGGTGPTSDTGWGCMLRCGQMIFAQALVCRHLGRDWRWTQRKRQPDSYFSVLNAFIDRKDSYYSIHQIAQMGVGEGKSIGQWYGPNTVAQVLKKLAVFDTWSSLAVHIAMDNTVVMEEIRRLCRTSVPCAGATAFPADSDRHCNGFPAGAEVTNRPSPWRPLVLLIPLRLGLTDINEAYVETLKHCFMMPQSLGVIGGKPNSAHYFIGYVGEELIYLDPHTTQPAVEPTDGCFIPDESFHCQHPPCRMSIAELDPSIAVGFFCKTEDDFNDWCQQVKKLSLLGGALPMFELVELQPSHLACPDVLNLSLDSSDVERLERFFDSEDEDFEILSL
Procedure: FRET-based assay for ATG4B or ATG4A activity was operated as previously described [5, 17]. Briefly, Recombinant protein ATG4B (0.75 μg/ml) or ATG4A (5 μg/ml) was incubated with compounds in reaction buffer (150 mM NaCl, 20 mM Tris–HCl, pH 8.0, 0.1% CHAPS, 1 mM EDTA) at 37 °C. After 30 min, substrate FRET-GATE-16 (50 μg/ml) was added to a final volume of 50 μl. The reaction was recorded via relative fluorescence intensity ratio of 527 nm/477 nm (RFU). The final inhibition rate of the compound for ATG4 was calculated as: (RFUcompound-RFUNC)/(RFUCON-RFUNC) × 100%; respectively, NC as negative control without inhibitor, CON as control without enzymes.

[2] = biological target: T2, endogenous ATG4B in HeLa cells (Homo sapiens, UniProt Q9Y4P1); experiment: Endogenous ATG4B activity in cells by FRET assay; assay type: cell-based
T2 construct: endogenous in cells; host or cells: HeLa
Text: Supplementary file 13578_2022_944_MOESM1_ESM.docx: Additional file 1: Figure S1. Screening of ATG4B inhibitors based on the approved drugs library by FRET assay. […] (D) Candidate compound number and name correspondence table, and IC50 calculation of nine commercially available compounds for ATG4B by FRET assay. Figure S2. […] Figure S3. […] Figure S5. […] Figure S6.

[3] = biological target: T3, Recombinant protein ATG4A (Homo sapiens, UniProt Q8WYN0); experiment: FRET-based assay for ATG4A activity; assay type: biochemical; details: FRET-based enzymatic cleavage
T3 construct: 6xHis; made in house; host or cells: E. coli BL21(DE3)
T3 sequence (Q8WYN0 whole entry): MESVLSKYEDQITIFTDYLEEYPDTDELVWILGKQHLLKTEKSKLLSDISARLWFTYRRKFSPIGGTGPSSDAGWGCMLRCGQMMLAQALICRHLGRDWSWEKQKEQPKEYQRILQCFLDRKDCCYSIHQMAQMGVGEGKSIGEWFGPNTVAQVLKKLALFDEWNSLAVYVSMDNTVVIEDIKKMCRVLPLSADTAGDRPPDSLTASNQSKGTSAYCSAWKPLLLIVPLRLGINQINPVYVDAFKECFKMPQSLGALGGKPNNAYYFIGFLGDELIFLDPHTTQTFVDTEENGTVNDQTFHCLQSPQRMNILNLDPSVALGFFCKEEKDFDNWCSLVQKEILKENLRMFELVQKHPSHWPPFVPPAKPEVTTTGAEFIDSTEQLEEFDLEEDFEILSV
Procedure: FRET-based assay for ATG4B or ATG4A activity was operated as previously described. Briefly, Recombinant protein ATG4B (0.75 μg/ml) or ATG4A (5 μg/ml) was incubated with compounds in reaction buffer (150 mM NaCl, 20 mM Tris–HCl, pH 8.0, 0.1% CHAPS, 1 mM EDTA) at 37 °C. After 30 min, substrate FRET-GATE-16 (50 μg/ml) was added to a final volume of 50 μl. The reaction was recorded via relative fluorescence intensity ratio of 527 nm/477 nm (RFU). The final inhibition rate of the compound for ATG4 was calculated as: (RFUcompound-RFUNC)/(RFUCON-RFUNC) × 100%; respectively, NC as negative control without inhibitor, CON as control without enzymes. For ATG4 activity determination in cells and tissues, cells or separated tumor samples were homogenized in a native lysis buffer (150 mM NaCl, 20 mM Tris–HCl, pH 7.6, 1% TritonX-100, 1 mM EDTA) without protease inhibitors. Then 5 μg total proteins from each sample was added into FRET assay system after clean supernatant proteins were separated. The reaction was recorded via relative fluorescence intensity ratio of 527 nm/477 nm. Finally, the inhibition rates of ATG4B were calculated with the vehicle or CM group as the negative control (ATG4 activity defined as 100%).

[4] = biological target: T4, Caspase 2 (Homo sapiens, UniProt P42575); experiment: Caspase activity assay kit, CASP2; assay type: biochemical; details: 10 μM
T4 construct: Beyotime (assay kit only) C1107
T4 sequence (P42575 170-325 limits assumed, species assumed): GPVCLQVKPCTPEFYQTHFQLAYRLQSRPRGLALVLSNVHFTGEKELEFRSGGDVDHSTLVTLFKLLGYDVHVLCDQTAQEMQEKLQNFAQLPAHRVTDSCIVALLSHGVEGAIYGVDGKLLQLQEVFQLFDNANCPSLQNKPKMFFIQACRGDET
T4 sequence (P42575 348-452 limits assumed, species assumed): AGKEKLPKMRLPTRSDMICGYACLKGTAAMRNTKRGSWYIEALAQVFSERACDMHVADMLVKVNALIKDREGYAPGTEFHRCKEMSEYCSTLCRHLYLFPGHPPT
Procedure: (§1) The enzyme activity of Caspase 1, Caspase 2, Caspase 3, Caspase 4, Caspase 6, Caspase 8 and Caspase 9 were determined via the activity assay kits (C1101, C1107, C1115, C1121, C1135, C1151 and C1157) from Beyotime (Shanghai, China). Then the experimental procedures were performed according to the manufacturer’s protocols.

[5] = biological target: T5, Caspase 3 (Homo sapiens, UniProt P42574); experiment: Caspase activity assay kit, CASP3; assay type: biochemical; details: 10 μM
T5 construct: Beyotime (assay kit only) C1115
T5 sequence (P42574 29-175 limits assumed, species assumed): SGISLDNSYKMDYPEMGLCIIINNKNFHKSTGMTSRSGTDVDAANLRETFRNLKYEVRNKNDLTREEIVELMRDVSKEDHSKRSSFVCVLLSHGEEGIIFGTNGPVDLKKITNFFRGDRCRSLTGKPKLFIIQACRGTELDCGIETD
T5 sequence (P42574 176-277 limits assumed, species assumed): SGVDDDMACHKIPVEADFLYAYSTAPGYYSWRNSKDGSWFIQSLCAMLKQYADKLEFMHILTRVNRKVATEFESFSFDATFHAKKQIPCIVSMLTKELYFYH
Procedure: as §1

[6] = biological target: T6, ATG4B 2CS (C292/361S) mutant (Homo sapiens, UniProt Q9Y4P1, C292S/C361S); experiment: FRET-based assay, ATG4B 2CS mutant; assay type: biochemical; details: Ebselen 0.5 μM, 15-90 min; read-out: inhibition rate against ATG4B 2CS
T6 construct: 6xHis; made in house; host or cells: E. coli BL21(DE3)
T6 sequence (Q9Y4P1 whole entry C292S/C361S): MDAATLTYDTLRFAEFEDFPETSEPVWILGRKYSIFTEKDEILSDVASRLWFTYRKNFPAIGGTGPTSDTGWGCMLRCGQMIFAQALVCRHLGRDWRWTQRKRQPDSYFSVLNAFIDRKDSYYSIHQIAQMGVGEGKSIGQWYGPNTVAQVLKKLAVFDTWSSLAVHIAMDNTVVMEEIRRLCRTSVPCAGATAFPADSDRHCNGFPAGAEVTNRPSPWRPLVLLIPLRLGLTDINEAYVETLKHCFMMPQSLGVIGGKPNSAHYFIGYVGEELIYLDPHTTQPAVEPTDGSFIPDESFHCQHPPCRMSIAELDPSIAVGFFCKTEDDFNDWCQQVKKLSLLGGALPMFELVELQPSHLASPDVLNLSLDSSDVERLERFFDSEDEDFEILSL
Procedure: FRET-based assay for ATG4B or ATG4A activity was operated as previously described [5, 17]. Briefly, Recombinant protein ATG4B (0.75 μg/ml) or ATG4A (5 μg/ml) was incubated with compounds in reaction buffer (150 mM NaCl, 20 mM Tris–HCl, pH 8.0, 0.1% CHAPS, 1 mM EDTA) at 37 °C. After 30 min, substrate FRET-GATE-16 (50 μg/ml) was added to a final volume of 50 μl. The reaction was recorded via relative fluorescence intensity ratio of 527 nm/477 nm (RFU). The final inhibition rate of the compound for ATG4 was calculated as: (RFUcompound-RFUNC)/(RFUCON-RFUNC) × 100%; respectively, NC as negative control without inhibitor, CON as control without enzymes. For ATG4 activity determination in cells and tissues, cells or separated tumor samples were homogenized in a native lysis buffer (150 mM NaCl, 20 mM Tris–HCl, pH 7.6, 1% TritonX-100, 1 mM EDTA) without protease inhibitors. Then 5 μg total proteins from each sample was added into FRET assay system after clean supernatant proteins were separated. The reaction was recorded via relative fluorescence intensity ratio of 527 nm/477 nm. Finally, the inhibition rates of ATG4B were calculated with the vehicle or CM group as the negative control (ATG4 activity defined as 100%).

[7] = system: HCT116 cells; experiment: Long-lived protein degradation assay; assay type: cell-based; details: 10 μM Ebselen, 2 μM Torin 1, 12 h
Procedure: Long-lived protein degradation assay was performed referring to the reported protocol. In brief, HCT116 cells were seeded in 6-well plates and cultured overnight, and then incubated with L-methionine-free DMEM (Thermo Fisher Scientific, 21,013,024) supplemented with 10% dialyzed FBS (Biological Industries, 2,148,391) for 30 min at 37℃ for depleting the methionine reserve. Subsequently, the cells were incubated with medium containing 50 μM AHA (MCE, HY-140346A) for 18 h to label AHA on proteins. After 2 h incubation with 10 × L-methionine to chase out the short-lived AHA-labeled proteins, cells were treated with compounds as indicated in regular medium for 12 h. Then the cells were harvested, fixed and permeabilized sequentially until they were incubated in the click reaction master mix (50 μM TAMRA alkyne [AAT Bioquest, AAT-487], 1 mM TCEP [MCE, HY-W011500], 100 μM TBTA [GLPBIO, GC45003], 1 mM CuSO4 [Sangon Biotech, C3008] in PBS) in the dark for 2 h. Finally, cells were washed and suspended in 500 μl PBS and analyzed by flow cytometry (BECKMAN, CytoFLEX S).

[8] = system: HCT116 cells; experiment: Cell counting and colony formation assays; assay type: cell-based
Procedure: For colony formation, WT HCT116 and ATG4B KO HCT116 cells were seeded in 6-well plates at 800 cells per well and cultured for 9–12 days, respectively. Concurrently, medium containing indicated compounds were replaced every 3 days, before the cells were fixed in 4% paraformaldehyde for 20 min and washed with PBS three times. Then colonies were stained with crystal violet (Beyotime, C0121) for 1 h and excess dyes were washed with PBS. Eventually, colonies more than 1 mm were counted in at least three independent experiments.
WT/ATG4B KO HCT116, WT/ATG4B KO SW620 and WT/ATG4B KO RKO cells were seeded in 96-well plate at 1000–1500 cells per well for cell viability assay, and seed in 6-well plate at 1 × 10^5 cells per well for cell number counting. After 12 h, the indicated drugs were added to the medium and cultured for another 96 h. Total viable cell numbers were counted by a cell counter (BioRAD), and cell viability was determined by cell-count-8 assay kit (CCK-8, Bimake, B34304) according to the manufacturer’s protocol.

[9] = system: WT and ATG4B KO HCT116; experiment: Apoptosis detection by cleaved PARP western blot; assay type: cell-based; details: low or high concentrations of Ebselen; STS 2 μM; 6 h

SMILES: O=c1c2ccccc2[se]n1-c1ccccc1 [Ebselen]
- inhibition rate against ATG4B WT ([1]; Ebselen 0.5 μM, 15-90 min, compared to 2CS): higher inhibition rate
- IC50 ([1]; recombinant ATG4B 0.75 μg/ml, 30 min preincubation at 37 °C): 189 nM
- inhibition of endogenous ATG4B in cells [2]: inhibited in a time- and dose-dependent manner
- inhibition of ATG4A compared to ATG4B [3]: weaker inhibition
- effect on CASP2 activity [4]: certain inhibition
- effect on CASP3 activity [5]: certain inhibition
- inhibition at 0.5 µM [6]: < 90%
- autophagic long-lived protein degradation induced by Torin 1 [7]: significantly inhibited
- cell proliferation and colony formation [8]: significantly inhibit
- apoptosis (cleaved PARP) [9]: did not show any increase in apoptosis
